Drawing on US10858342B2, “Bicyclic imidazole derivatives useful for the treatment of renal diseases, cardiovascular diseases and fibrotic diseases” (Boehringer Ingelheim International GmbH, priority 2016, dated 2020), this text covers IC50 and Selectivity for 24 molecules.

Assay type in all cases: biochemical, cynomolgus monkey
The target of test [1] is aldosterone synthase (CYP11B2) (Macaca fascicularis, UniProt A0A2K5UPL9). In words: Inhibition of aldosterone synthase (cynomolgus adrenal mitochondria, aldosterone by mass spectrometry). Conditions: 2 μM corticosterone substrate, 50 units CYP11B2, 90 min, 37° C.; read-out: Aldosterone Inhibition IC50. On the procedure:
(§1) The aldosterone synthase and cortisol synthase inhibition assays employ cynomolgus adrenal gland mitochondria as the source of aldosterone synthase (CYP11B2) and cortisol synthase (CYP11B1). […] One unit of CYP11B2 and CYP11B1 activity in these preparations is defined as the amount of enzyme that generates 1 pmol of product in one hour under the conditions described.
(§2) The compounds of the invention may be evaluated for aldosterone synthase inhibition by the following assay:
(§3) Assays are performed in 96-well format in a final volume of 60 microL/well, containing 100 mM potassium phosphate, pH 7.4, 1% (v/v) DMSO, and additionally, 2 μM of corticosterone and 50 units of CYP11B2 activity. Reactions are started by the addition of NADPH to 1 mM and allowed to proceed for 90 minutes at 37° C. Reactions are terminated by the addition of 60 μL of MeCN containing an internal standard for mass spectrometry. One hundred microliters are then transferred to a glass filter plate and centrifuged at 570×g for 5 minutes and the filtrate is collected. Reaction product aldosterone is quantified by mass spectrometry. To determine the assay blank value (0% activity), NADPH is omitted from some reactions.
(§4) Dose dependent inhibition is quantified by the inclusion of compound at various concentrations. Maximum activity (100%) is defined by reactions containing NADPH, but without compound.

The test system of test [2] is aldosterone synthase (CYP11B2). The test is described as above. Conditions: selectivity for aldosterone synthase inhibition over cortisol synthase (CYP11B1) inhibition, fold. On the procedure:
as §1, §2, §3, §4

For test [3], the target named is cortisol synthase (CYP11B1) (Macaca fascicularis, UniProt A0A2K5ULY1). In words: Inhibition of cortisol synthesis (cynomolgus adrenal mitochondria, cortisol by mass spectrometry). The protocol:
The aldosterone synthase and cortisol synthase inhibition assays employ cynomolgus adrenal gland mitochondria as the source of aldosterone synthase (CYP11B2) and cortisol synthase (CYP11B1). Mitochondria are prepared from frozen cynomolgus monkey adrenal glands according to Method A described in by J. D. McGarry et al. (Biochem. J., 1983, 214, 21-28), with a final resuspension in the AT buffer described in R. Yamaguchi et al. (Cell Death and Differentiation, 2007, 14, 616-624), frozen as aliquots in liquid nitrogen and stored at −80° C. until use. One unit of CYP11B2 and CYP11B1 activity in these preparations is defined as the amount of enzyme that generates 1 pmol of product in one hour under the conditions described.
as §3
Dose dependent inhibition is quantified by the inclusion of compound at various concentrations. Maximum activity (100%) is defined by reactions containing NADPH, but without compound. Activities at each concentration are expressed as a percentage of the maximum activity (y-axis) and plotted against concentration of compound (x-axis) and the concentration corresponding to 50% activity (IC50) determined using the XLFit curve-fitting program using a 4-parameter logistic model.
Assays are performed as for aldosterone synthase except for the use of 150 units of CYP11B1, 11-deoxycortisol as substrate and cortisol measured as product.

[4] abbreviates: 11-deoxycortisol substrate, 150 units CYP11B1; read-out: Cortisol Inhibition IC50.
[5] abbreviates: read-out: Cortisol Inhibition IC50; 11-deoxycortisol substrate, 150 units CYP11B1.

Molecules are shown by their SMILES. Where two headings read alike, the source gives them in different places. Bounds are passed on as bounds.

Sequence of aldosterone synthase (CYP11B2) (Macaca fascicularis, UniProt A0A2K5UPL9) (A0A2K5UPL9 1-503): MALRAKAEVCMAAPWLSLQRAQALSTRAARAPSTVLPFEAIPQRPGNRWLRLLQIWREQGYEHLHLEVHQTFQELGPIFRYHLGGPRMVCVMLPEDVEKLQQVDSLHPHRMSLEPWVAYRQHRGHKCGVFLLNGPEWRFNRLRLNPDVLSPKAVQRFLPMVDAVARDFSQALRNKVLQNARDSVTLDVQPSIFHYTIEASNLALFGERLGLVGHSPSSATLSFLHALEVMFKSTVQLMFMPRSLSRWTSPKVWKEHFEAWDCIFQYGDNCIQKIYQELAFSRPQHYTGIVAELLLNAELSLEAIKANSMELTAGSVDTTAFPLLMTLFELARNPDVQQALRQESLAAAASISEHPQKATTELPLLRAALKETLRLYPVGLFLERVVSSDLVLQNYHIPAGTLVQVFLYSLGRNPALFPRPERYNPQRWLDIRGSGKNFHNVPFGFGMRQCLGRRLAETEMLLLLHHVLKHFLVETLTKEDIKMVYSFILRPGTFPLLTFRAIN

For orientation: IC50 means the concentration that gives 50% inhibition. On to `CC(=O)N1CCCc2cc(-n3cnc4c3C(=O)CCC4)ccc21` [C-AAF, 3-(1-Acetyl-1,2,3,4-tetrahydro-quinolin-6-yl)-3,5,6,7-tetrahydro-benzoimidazol-4-one], for which the values for the IC50 in test [1] and in test [3] (setting [4]) were 37 nM and 10000 nM, respectively. The same molecule came in with a Selectivity in test [2] of 270.
As for `Cn1ncc2cc(-n3cnc4c3C(=O)CCC4)ccc21` [C-AAG, 3-(1-Methyl-1H-indazol-5-yl)-3,5,67,-tetrahydro-benzoimidazol-4-one], the IC50 was 100 nM in test [1] and over 30000 nM in test [3] (setting [4]). Also, in test [2], the Selectivity is listed as 300.
With `Cn1ncc2ccc(-n3cnc4c3C(=O)CCC4)cc21` [C-AAH, 3-(1-Methyl-1H-indazol-6-yl)-3,5,67,-tetrahydro-benzoimidazol-4-one], the values for the IC50 in test [1] and in test [3] (setting [4]) were 48 nM and over 30000 nM, respectively. Further, the Selectivity in test [2] worked out at 630.
For the molecule `O=C1CCCc2ncn(-c3ccc4c(c3)OCCO4)c21` [C-AAI, 3-(2,3-Dihydro-benzo[1,4]dioxin-6-yl)-3,5,6,7-tetrahydro-benzoimidazol-4-one], the values for the IC50 in test [1] and in test [3] (setting [4]) were 160 nM and over 30000 nM, respectively. In test [2], this molecule came in with a Selectivity of 180.
Take `O=C1CCCc2ncn(-c3ccc4c(c3)OCCCO4)c21` [C-AAJ, 3-(3,4-Dihydro-2H-benzo[b][1,4]dioxepin-7-yl)-3,5,6,7-tetrahydro-benzoimidazol-4-one]: the figures for the IC50 in test [1] and in test [3] (setting [4]) were 440 nM and over 30000 nM, respectively. In test [2], this molecule yielded a Selectivity of 67.
With `N#Cc1ccc(-n2cnc3c2C(=O)CCC3)c(C2CC2)c1` [C-AAK, 3-Cyclopropyl-4-(7-oxo-4,5,6,7-tetrahydro-benzoimidazol-1-yl)-benzonitrile], the IC50 in test [1] worked out at 34 nM; in test [3] (setting [4]), 17000 nM. The Selectivity in test [2] amounted to 500.
With `N#Cc1ccc(-n2cnc3c2C(=O)CCC3)cc1` [C-AAL, 4-(7-Oxo-4,5,6,7-tetrahydro-benzoimidazol-1-yl)-benzonitrile], the figures for the half-inhibitory concentration (IC50) in test [1] and in test [3] (setting [4]) were 19 nM and 4600 nM, respectively. Further, in test [2], the Selectivity is 250.
As for `Cn1c(=O)oc2cc(-n3cnc4c3C(=O)CCC4)ccc21` [C-AAM, 3-Methyl-6-(7-oxo-4,5,6,7-tetrahydro-benzoimidazol-1-yl)-3H-benzooxazol-2-one], the results for the IC50 in test [1] and in test [3] (setting [4]) were 120 nM and over 30000 nM, respectively. This molecule also returned a Selectivity in test [2] of 240.
For `CN1C(=O)COc2cc(-n3cnc4c3C(=O)CCC4)ccc21` [C-AAN, 4-Methyl-7-(7-oxo-4,5,6,7-tetrahydro-benzoimidazol-1-yl)-4H-benzo[1,4]oxazin-3-one], the IC50 in test [1] was 84 nM; in test [3] (setting [4]) it was over 30000 nM. Besides, in test [2], the Selectivity is 360.
For `Cc1cc(-n2cnc3c2C(=O)CC2(CCOCC2)C3)ccc1C#N` [C-AAO, 2-Methyl-4-(7-oxospiro[4,6-dihydrobenzoimidazole-5,4′-tetrahydropyran]-1-yl)benzonitrile] the same measures were 77 nM, 2300 nM and 30.
Turning to `CN1C(=O)CCc2cc(-n3cnc4c3C(=O)CC3(CCOCC3)C4)ccc21` [C-AAP, 3-(1-Methyl-2-oxo-3,4-dihydroquinolin-6-yl)spiro[5,7-dihydrobenzoimidazole-6,4′-tetrahydropyran]-4-one], the IC50 in test [1] is 460 nM; in test [3] (setting [4]), over 30000 nM. This molecule also displayed a Selectivity in test [2] of 65.
With `O=C1CC2(CCOCC2)Cc2ncn(-c3ccc(Cl)cc3)c21` [C-AAR, 3-(4-Chloro-phenyl)-6,6-3-o-tetrahydropyran-3,5,6,7-tetrahydro-benzoimidazol-4-one], the IC50 in test [1] worked out at 69 nM; in test [3] (setting [4]) it was 5000 nM. For the same molecule, in test [2], the Selectivity was 73.
On the same counts, the results for `N#Cc1ccc(-n2cnc3c2C(=O)CC2(CCOCC2)C3)cc1` [C-AAS, 4-(7-Oxospiro[4,6-dihydrobenzimidazole-5,4′-tetrahydropyran]-1-yl)benzonitrile] are 240 nM, 14000 nM and 61.
For `N#Cc1ccc(-n2cnc3c2C(=O)CC2(CCC2)C3)cc1` [C-AAT, 4-(7-Oxospiro[4,6-dihydrobenzimidazole-5,1′-cyclobutan]-1-yl)benzonitrile] the same measures were 3.8 nM, 480 nM and 130.
On the same counts, the results for `Cc1cc(-n2cnc3c2C(=O)CC2(CCC2)C3)ccc1C#N` [C-AAU, 2-Methyl-4-(7-oxospiro[4,6-dihydrobenzimidazole-5,1′-cyclobutan]-1-yl)benzonitrile] are 10 nM, 51 nM and 5.0.
Regarding `CN1C(=O)CCc2cc(-n3cnc4c3C(=O)CC3(CCC3)C4)ccc21` [C-AAV, 3-(1-Methyl-2-oxo-3,4-dihydroquinolin-6-yl)spiro[5,7-dihydrobenzimidazole-6,1′-cyclobutane]-4-one], the IC50 in test [1] was determined as 47 nM; in test [3] (setting [4]), 14000 nM. The molecule also yielded a Selectivity in test [2] of 300.
As for `N#Cc1ccc(-n2cnc3c2C(=O)CC2(CC2)C3)cc1Cl` [C-AAW, 3-(3-Chloro-4-cyano)-6,6-spirocyclopropyl-3,5,6,7-tetrahydrobenzimidazol-4-one], the results for the half-maximal inhibitory concentration (IC50) in test [1] and in test [3] (setting [5]) were 5 nM and 220 nM, respectively. Moreover, the Selectivity in test [2] is given as 43.
Consider `N#Cc1ccc(-n2cnc3c2C(=O)CC2(CC2)C3)cc1` [C-AAX, 3-(4-Cyanophenyl)-6,6-spirocyclpropyl-3,5,6,7-tetrahydro-benzimidazol-4-one], for which the IC50 worked out at 8.5 nM in test [1] and 1900 nM in test [3] (setting [4]). The molecule also gave a Selectivity in test [2] of 230.
For `O=C1CCCc2ncn(-c3ccc4c(c3)CCCN4)c21` [C-ABB, 3-(1,2,3,4-Tetrahydro-quinolin-6-yl)-3,5,6,7-tetrahydro-benzoimidazol-4-one], the concentration for half-maximal inhibition (IC50) is 250 nM in test [1] and over 30000 nM in test [3] (setting [4]). The molecule also displayed a Selectivity in test [2] of 120.
For `CC1(C)CC(=O)c2c(ncn2-c2ccc(F)c(F)c2)C1` [C-ABC, 3-(3,4-Difluoro-phenyl)-6,6-dimethyl-3,5,6,7-tetrahydro-benzimidazol-4-one] the same measures were 10 nM, 650 nM and 63.
For `CC1(C)CC(=O)c2c(ncn2-c2ccc(Cl)c(Cl)c2)C1` [C-ABD, 3-(3,4-Dichloro-phenyl)-6,6,-dimethyl-3,5,6,7-tetrahydro-benzoimidazol-4-one] the same measures were 3.1 nM, 370 nM and 120.
Consider `CC1(C)CC(=O)c2c(ncn2-c2ccc(C#N)c(Cl)c2)C1` [C-ABE, 2-Chloro-4-(5,5-dimethyl-7-oxo-4,5,6,7-tetrahydro-benzoimidazol-1-yl)-benzonitrile], for which the IC50 in test [1] was determined as 1.3 nM; in test [3] (setting [5]) it was 110 nM. For the same molecule, the Selectivity in test [2] is given as 79.
`CC1(C)CC(=O)c2c(ncn2-c2cccc(Cl)c2Cl)C1` [C-ABF, 3-(2,3-Dichloro-phenyl)-6,6-dimethyl-3,5,6,7-tetrahydro-benzoimidazol-4-one]: the concentration for half-maximal inhibition (IC50) in test [1] worked out at 3.8 nM; in test [3] (setting [4]), 610 nM. In addition, the Selectivity in test [2] came out at 160.
For `CC1(C)CC(=O)c2c(ncn2-c2ccc(Cl)cc2Cl)C1` [C-ABG, 3-(2,4-Dichloro-phenyl)-6,6-dimethyl-3,5,6,7-tetrahydro-benzoimidazol-4-one] the same measures were 4.2 nM, 500 nM and 120.
